{"source": "patent US20190376039A1", "about": "“CELLS WITH IMPROVED INWARD RECTIFIER CURRENT” (priority 2018, published 2019)", "key": {"[1]": {"test_system": "ES-Kir2.1 and iPS-Kir2.1 cell lines", "assay": "Initiation of cardiomyocyte differentiation (Day 0 medium)", "format": "cell-based, human", "conditions": "12 μM CHIR99021 in RPMI/B27-insulin", "method": "The ES-Kir2.1 and iPS-Kir2.1 cell lines were cultured in feeder-free media and prepared for differentiation as previously described with modifications (see, e.g., Lian et al. (2012) “Robust cardiomyocyte differentiation from human pluripotent stem cells via temporal modulation of canonical Wnt signaling” Proc Natl Acad Sci USA 109: E1848-57; Lian et al. (2013) “Directed cardiomyocyte differentiation from human pluripotent stem cells by modulating Wnt/6-catenin signaling under fully defined conditions” Nature Protocols 8: 162-75, each of which is incorporated herein by reference in its entirety). In particular, five days prior to differentiation (“Differentiation Day −5”), cells were harvested and seeded. Media was removed from the stem cell cultures and the cells were and washed with 1 mL DPBS per well. Next, 1 mL of Versene was added to each well and the cells were incubated at 37° C. for 5 minutes. Cells were transferred to a 50-ml tube, an equal volume of medium was added, and the cells were resuspended by gentle pipetting to singularize the cells. Cells were counted, pelleted, and resuspended in culture medium (e.g., mTeSR1, Stem Flex, etc.) to provide cells at a concentration that is pipetted into 6-well plates at approximately 2 million cells per 6-well plate. […]"}, "[2]": {"test_system": "IK1-induced ventricular-like SC-CMs", "assay": "Action potentials under current clamp in paced IK1-induced SC-CMs (di-LQTS model)", "conditions": "for APD10 / APD50 / APD70 / APD90 / RMP: E4031 20 nM, mean SE; for slope of linear regression, EAD take-off potential vs. peak EAD voltage: 100 nM E4031", "method": "SC-CMs were singularized and plated before cellular electrophysiology experiments on 12-mm poly-d-lysine/laminin or SyntheMax pre-coated coverslips. IK1 was induced by treating singularized cells with doxycycline (2 μM) (Thermo Fisher Scientific) for 48-72 hours prior to cellular electrophysiology analysis. Borosilicate glass pipettes (3-4 MΩ) were used (Model P-97; Sutter Instruments, Novato, Calif.). Whole cell capacitance was calculated by using the time domain technique (20).\nAP were measured under current clamp at 32° C. using an Axopatch 200B amplifier and pCLAMP 10 (Molecular Devices, Sunnyvale, Calif.). […] The pipette solution comprised 150 mM K-gluconate, 5 mM EGTA, 10 mM HEPES, and 5 mM MgATP (pH 7.2, KOH). Myocytes were paced at 0.5, 1, 2, and 3 Hz with a depolarizing pulse from a programmable digital stimulator (D55000; WPI, Sarasota, Fla.). AP properties including AP amplitude; resting membrane potential; AP duration at 10% (APD10), 50% (APD50), 70% (APD70), and 90% (APD90) of repolarization; and maximum upstroke velocity (dV/dtmax) were measured (pCLAMP 10; Matlab 6.0, Natick, Mass.). […] Myocytes were paced at 0.5 and 1 Hz. […] AP properties identified above were re-measured."}, "[3]": {"conditions": "0.5 Hz pacing, E4031 20 nM and 100 nM, ATX-II 30 nM"}, "[4]": {"conditions": "drug vs baseline, E4031, ATX-II 30 nM"}, "[5]": {"conditions": "20 nM E4031, 0.5 Hz pacing, p<0.01"}}}
{"compound": "Cc1c[nH]c(-c2cnc(NCCNc3ccc(C#N)cn3)nc2-c2ccc(Cl)cc2Cl)n1", "note": "[CHIR99021]", "values": [{"measurement": "cell killing at initiation of differentiation", "setting": "[1]", "value": "kills all or most of the cells"}]}
{"compound": "ATX-II: late sodium current agonist (Alamone Labs); late INa enhancing drug (delayed channel inactivation)", "values": [{"measurement": "AP prolongation (APD) compared to control", "setting": "[2]; [3]", "value": "markedly increased"}, {"measurement": "induction of early afterdepolarizations (EADs)", "setting": "[2]; [3]", "value": "did not occur"}, {"measurement": "APD10", "setting": "[2]; 0.5 Hz pacing, ATX-II 30 nM", "value": "45.2 ± 25.0", "unit": "ms"}, {"measurement": "APD50", "setting": "[2]; 0.5 Hz pacing, ATX-II 30 nM", "value": "869.4 ± 111.7", "unit": "ms"}, {"measurement": "APD70", "setting": "[2]; 0.5 Hz pacing, ATX-II 30 nM", "value": "1025.6 ± 107.4", "unit": "ms"}, {"measurement": "APD90", "setting": "[2]; 0.5 Hz pacing, ATX-II 30 nM", "value": "1056.9 ± 106.5", "unit": "ms"}, {"measurement": "RMP", "setting": "[2]; 0.5 Hz pacing, ATX-II 30 nM", "value": "−76.2 ± 3.65", "unit": "mV"}, {"measurement": "effect on RMP", "setting": "[2]; [4]", "value": "no difference"}, {"measurement": "effect on dV/dt max", "setting": "[2]; [4]", "value": "no difference"}]}
{"compound": "Cc1cccc(CCN2CCC(C(=O)c3ccc(NS(C)(=O)=O)cc3)CC2)n1", "note": "[E4031]", "values": [{"measurement": "effect on APD10 compared with control", "setting": "[2]; 20 nM E4031, 0.5 Hz pacing", "value": "No significant effect"}, {"measurement": "effect on APD50 compared with control", "setting": "[2]; 20 nM E4031, 0.5 Hz pacing", "value": "No significant effect"}, {"measurement": "effect on APD70 compared with control", "setting": "[2]; [5]", "value": "significantly prolongs"}, {"measurement": "effect on APD90 compared with control", "setting": "[2]; [5]", "value": "significantly prolongs"}, {"measurement": "slope of linear regression, EAD take-off potential vs. peak EAD voltage", "setting": "[2]; FIG. 4C", "value": "−2.6±0.1"}, {"measurement": "slope of linear regression, EAD take-off potential vs. peak EAD voltage", "setting": "[2]; FIG. 4D, second independent experiment", "value": "−1.68±0.09"}, {"measurement": "AP prolongation (APD) compared to control", "setting": "[2]; [3]", "value": "dose-dependent AP prolongation"}, {"measurement": "APD10", "setting": "[2]; 0.5 Hz pacing, ATX-II 30 nM", "value": "131.1 ± 53.4", "unit": "ms"}, {"measurement": "APD50", "setting": "[2]; 0.5 Hz pacing, ATX-II 30 nM", "value": "633.8 ± 153.2", "unit": "ms"}, {"measurement": "APD70", "setting": "[2]; 0.5 Hz pacing, ATX-II 30 nM", "value": "767.5 ± 164.8", "unit": "ms"}, {"measurement": "APD90", "setting": "[2]; 0.5 Hz pacing, ATX-II 30 nM", "value": "802.4 ± 172.0", "unit": "ms"}, {"measurement": "RMP", "setting": "[2]; 0.5 Hz pacing, ATX-II 30 nM", "value": "−70.6 ± 4.11", "unit": "mV"}, {"measurement": "effect on RMP", "setting": "[2]; [4]", "value": "remains normally polarized and stable"}]}
